From patent US9023894B2, “Synergistic combinations comprising a renin inhibitor for cardiovascular diseases” (priority 2000, dated 2015)
“Also recorded” adds a separate entry of the source.

Legend:
[1] = tested on: SHR with endothelial dysfunction; experiment: Endothelial dysfunction test: SHR treated with the NO synthesis inhibitor L-NAME for 12 weeks; type: in vivo, rat; settings: for proteinuria / kidney lesions: low doses; for proteinuria / survival rates: drugs in drinking fluid; for kidney lesions: kidney sections; for survival rates: low, non-blood pressure reducing doses
Procedure: Male 20-24 week-old SHR, purchased from RCC Ldt (Fullingsdorf, Switzerland), are maintained in a temperature- and light-controlled room with free access to rat chow (Nafag 9331, Gossau, Switzerland) and tap water. The experiment is performed in accordance with the NIH guidelines and approved by the Canton Veterinary office (Bew 161, Kantonales Veterinäramt, Liestal, Switzerland). All rats are treated with the NO synthesis inhibitor L-NAME (Sigma Chemicals) administered in drinking water (50 mg/l) for 12 weeks. The average daily dose of L-NAME calculated from the water consumed was 2.5 mg/kg/d (range 2.1-2.7).
The rats can be divided into 5 groups: group 1, control (n=40); Group 2, the compound of formula (I) in form of the hemi-fumarate (ren1; n=40); Group 3, enalapril (ena1; n=30); Group 4, a combination (ena1ren1) of enalapril and the compound of formula (I) in form of the hemi-fumarate; (n=30) and Group 5, the compound of formula (I) in form of the hemi-fumarate (ren2—higher dose; n=30). The drugs are administered in drinking fluid.
Body weight is measured every week. Systolic blood pressure and heart rate are recorded by tail cuff plethysmography 3 and 2 weeks before starting the study and at 2 weeks after drug administration. Urine is collected over a 24 hour period from rats kept in individual (metabolic) cages the week before starting treatment and at weeks 4 and 12 for volume measurement and protein, creatinine, sodium and potassium determination using standard laboratory methods. At the same time points, blood samples are withdrawn from the retro-orbital plexus (maximum 1 ml) for creatinine, Na^+ and K^+ assays.
Ten rats from each group are sacrificed at 4 weeks for collection of kidney and heart for morphological analysis. The remaining rats are sacrificed at 12 weeks. Cardiac and kidney weight is recorded. Terminal blood sampling is performed in 5% EDTA at 4 (morphometry study) and 12 (end of the study) weeks for aldosterone, determination by radioimmunoassay using a DPC coat-a-count aldosterone-RIA kit (Bühlmann, Switzerland).
All data are expressed as mean±SEM. Statistical analysis is performed using a one-way ANOVA, followed by a Duncan's multiple range test and a Newman-Keuls test, 7 for comparison between the different groups. Results with a probability value of less than 0.05 are deemed statistically significant.

normotensive rats = settings: Ang II at 1 mg/kg, after treatment; cited from earlier work

SMILES	proteinuria [1]	kidney lesions [1]	survival rates [1]	survival rates ([1]; listed as renin inhibitor of formula (I))	pressor effect of Ang II (normotensive rats)
COCCCOc1cc(C[C@@H](C[C@H](N)[C@@H](O)C[C@H](C(=O)NCC(C)(C)C(N)=O)C(C)C)C(C)C)ccc1OC [2(S),4(S),5(S),7(S)—N-(3-amino-2,2-dimethyl-3-oxopropyl)-2,7-di(1-methylethyl)-4-hydroxy-5-amino-8-[4-methoxy-3-(3-methoxy-propoxy)phenyl]-octanamide]	no decrease in proteinuria	no reduction of kidney lesions	significant improvements in survival rates	improved survival	can be reducted
CCOC(=O)[C@H](CCc1ccccc1)N[C@@H](C)C(=O)N1CCC[C@H]1C(=O)O [enalapril, reference compound]	no decrease in proteinuria	no reduction of kidney lesions	improved survival; also recorded: significant improvements in survival rates		
